Results on ten compounds are retold here after US6903104B2, “Indol-3-YL-2-oxoacetamide compounds and methods of use thereof” (National Health Research Institutes, priority 2001, dated 2005).

For assay [1], the system named is colorectal DLD1 cancer cells. In words: In vitro cytotoxicity MTS assay, colorectal DLD1. It is filed as cell-based, human. The note with it: 72 hours. Here is the method: (§1) A panel of human cancer cells, gastric NUGC3 and HR, nasopharyngeal HONE1, hepatocellular HEP G2 and HA-22T, colorectal DLD1, lung A549, prostate PC3, breast MCF7 and its adriamycin-resistant MCF7/ADR subline, uterus MES-SA and its adriamycin-resistant MES-SA/Dx5 subline, is purchased from Food Industry Research and Development Institute, Hsinchu, Taiwan R.O.C. or American Type Culture Collection, Manassas, Va. U.S.A., are used in in vitro cytotoxicity assays. The human cells are seeded at a cell density of 3000 or 4500 cells/100 μl/well in 96-well flat-bottom plates and incubated for 24 hours at 37° C. in a 5% CO2 incubator. The testing compounds are dissolved in dimethyl sulfoxide (DMSO) and further diluted into the culture medium for treatments of human cancer cells in vitro. The drug-containing media has a final DMSO concentration of ≦0.3%. The compounds of this invention are prepared in culture media for testing at a range of concentrations from 10, 1, 0.1, 0.01 to 0.001 μM. Each compound solution is (200 μl/well in duplicate) in the cell plates and is treated for 72 hours at 37° C., 5% CO2 in an incubator. Actinomycin D at 5 μM and 0.3% DMSO are used as the positive and vehicle controls, respectively. A colorimetric assay using 3-(4,5-dimethylthiazol-2-yl)-5-(3-carboxymethoxyphenyl)-2-(4-sulfophenyl)-2H-tetrazolium (MTS) and phenazine methosulfate (PMS) is used to determine the potency of the compounds. This assay measures cell viability based on the cellular activity in conversion of a tetrazolium salt into a colored soluble formazan product. The optical density (OD) values are measured at 490 nm with a 1420 multilabel counter VICTOR® from Wallac, Turku, Finland. All of the measured values are subtracted with that of the blank control wells without cells before further calculations. The efficacy data are expressed as a percentage normalized to the vehicle controls as calculated in the following formulae. Inhibitory potency (% of vehicle control)=[(OD490compound−OD490blank)/(OD490vehicle−OD490blank)]×100%. The concentration (IC50) of a test compound that inhibits 50% of the cellular activity is determined.
(Tetrazolium dyes change colour on reduction, which living cells bring about.)

Assay [2] has as its system hepatocellular HA-22T cancer cells. In words: In vitro cytotoxicity MTS assay, hepatocellular HA-22T. The settings on record: 72 hours. Format: cell-based, human. Here is the method:
as §1

In assay [3] the test system is hepatocellular HEP G2 cancer cells. In words: In vitro cytotoxicity MTS assay, hepatocellular HEP G2. Format: cell-based, human. The note with it: 72 hours. On the procedure:
as §1

Assay [4] relates to nasopharyngeal HONE1 cancer cells. Description: In vitro cytotoxicity MTS assay, nasopharyngeal HONE1. The note with it: 72 hours. Format: cell-based, human. Here is the method:
as §1

Another assay concerns gastric HR cancer cells. In words: In vitro cytotoxicity MTS assay, gastric HR. Format: cell-based, human. The note with it: 72 hours. On the procedure:
as §1

The test system of assay [5] is gastric NUGC3 cancer cells. Description: In vitro cytotoxicity MTS assay, gastric NUGC3. The note with it: 72 hours. Format: cell-based, human. Here is the method:
as §1

The test system of the next assay is breast MCF7 cancer cells. In words: In vitro cytotoxicity MTS assay, breast MCF7. It is filed as cell-based, human. The settings on record: 72 hours. On the procedure:
as §1

In assay [6] the test system is adriamycin-resistant MCF7/ADR subline. In words: In vitro cytotoxicity MTS assay, adriamycin-resistant MCF7/ADR. The note with it: 72 hours. Format: cell-based, human. Here is the method:
as §1

The test system of assay [7] is rat aorta endothelial cells. In words: Rat aorta tube formation assay (angiogenesis inhibition). It is filed as cell-based, Spraque-Dawley rats. Also on record: key: Noninhibitors are indicated by the symbol (−), meaning that the extent of endothelial cell growth is essentially at the same level as that of the control; The most potent inhibitors receive a score of (+++++), indicating essentially no measurable endothelial cell growth. The settings on record: final conc. 0.3 μg/ml, 5 days. Here is the method:
The procedures are modified from previous reports (Burbridge and West 2001; Bauer et al. 2000; Nicosai and Ottinetti 1990a) and described as follows. Male Spraque-Dawley rats of 6-8 weeks old are purchased from the National Laboratory Animal Breeding and Research Center (Taipei, Taiwan). The animals are anesthetized with urethane (2 g/kg, intraperitoneal) and the thoracic aortas are quickly harvested in a laminar flow hood. The aortas are rinsed with ice-cold normal saline with 10 μg/ml gentamicin and the attached fibroadipose tissues are removed using micro-dissection scissors. The aortas are cross-sectioned into rings of 1 mm in thickness. A mixture of Matrigel®, purchased from BD Biosciences, solution and the EBM-II medium, purchased from BioWhittaker Inc., (1:1) with 2% FBS, 0.25 mg/ml, amphotericin B and 10 μg/ml gentamicin is prepared and added at 100 μl to each well of a 48-well plate. The mixture is allowed to gel at 37° C. Aorta rings are then placed onto the gelled matrix and embedded in an additional 150 μl per well of the mixture solution and allowed to gel at 37° C. The aorta rings are then covered with 125 μl of the EGM-II medium and incubated overnight in humidified incubator with 5% CO2/95% air at 37° C. After removal of the EGM-II from the established aorta cultures, the compound-containing media are applied at 300 μl per well to the cultures and then incubated in 5% CO2/95% air at 37° C. for 5 days. The cultures are then subject to the 3-[4,5-dimethylthiazol-2-yl]-2,5 diphenyl-2H-tetrazolium bromide (MTT) or 3-(4,5-dimethylthiazol-2-yl)-5-(3-carbomethoxyphenyl)-2H-tetrazolium (MTS) assay and OD490 nm values measured. The testing compounds are dissolved in dimethyl sulfoxide (DMSO) and prepared in EBM-II media with at a final concentration of DMSO less than 0.1%.
The capillary-like, tube structure of the outgrown rat aorta endothelial cells is easily visualized by MTT staining. The medium on top of the matrix is removed from the established aorta ring cultures. MTT solution of 5 mg/ml in saline is added to the cultures at 100 μl/well and the cultures are incubated in a CO2 incubator at 37° C. for 24 hr. The stained cultures are then examined under a microscope DMIRB from Leica and photos taken with a digital camera.
Inhibition activity is also assessed in the following manner. The reductive reaction of MTS initiated by the viable cellular mitochondrial activity is used as a basis for the measurement of cell viability (Cory et al. 1991; Gieni et al. 1995). To the rat aorta ring cultures 300 μl of a solution containing 100 μg MTS and 1 μg, phenazine methosulfate is added per well and incubated in 5% CO2/95% air at 37° C. for 24 hr. During the incubation, MTS is converted to formazan product. At the end of incubation, the solution overlaying the gel is well-mixed and 100 μl aliquots are transferred into a 96-well plate for measurement of OD490 nm with a spectrophotometer VICTOR™-II from Wallac Oy.
The compounds listed in Table 3 are screened for angiogenesis inhibition. The control compound, ASTA, is D-24851, N-[pyridin-4-yl]-[1-(4-chlorobenzyl)-indol-3-yl]-glyoxylic acid amide. Noninhibitors are indicated by the symbol (−), meaning that the extent of endothelial cell growth is essentially at the same level as that of the control.

The test system of another assay is lung A549 cancer cells. Description: In vitro cytotoxicity MTS assay, lung A549. The settings on record: 72 hours. Format: cell-based, human. On the procedure:
as §1

Assay [8] concerns prostate PC3 cancer cells. In words: In vitro cytotoxicity MTS assay, prostate PC3. The settings on record: 72 hours. It is filed as cell-based, human. On the procedure:
as §1

In assay [9] the test system is uterus MES-SA cancer cells. Description: In vitro cytotoxicity MTS assay, uterus MES-SA. The note with it: 72 hours. It is filed as cell-based, human. On the procedure: as §1
Assay [10] relates to adriamycin-resistant MES-SA/Dx5 subline. In words: In vitro cytotoxicity MTS assay, adriamycin-resistant MES-SA/Dx5. The note with it: 72 hours. Format: cell-based, human. Here is the method: as §1

Where only a bound is given, the exact number is not on record here.

In general, IC50 refers to the concentration needed to halve the response being measured. On to `Cc1cc(NC(=O)C(=O)c2cn(Cc3cc(C(C)C)no3)c3ccccc23)sn1` [Compound 65], for which the half-inhibitory concentration (IC50) worked out at 609 nM in [1]; 302 nM in [2]; 720 nM in assay [3]; 50 nM in assay [4]; 324 nM in the assay with gastric HR cancer cells; 242 nM in assay [5]. Besides, the IC50 in the assay on breast MCF7 cancer cells was 700 nM; in [6] it was 710 nM. In addition, the “Inhibition Score” value in [7] is given as “+++++”.
With `Cc1cc(NC(=O)C(=O)c2cn(Cc3ccco3)c3ccccc23)sn1` [Compound 40], the concentration for half-maximal inhibition (IC50) came to 981 nM in [1]; 1260 nM in [2]; 7720 nM in assay [3]; 56 nM in assay [4]; 295 nM with gastric HR cancer cells; 395 nM in assay [5]. The IC50 was determined as 746 nM in the assay with lung A549 cancer cells; 398 nM in assay [8]; 1160 nM in the assay with breast MCF7 cancer cells; 1170 nM in assay [6]; 235 nM in assay [9]; 263 nM in [10]. For the same compound, in assay [7], the “Inhibition Score” value is “+++++”.
For `O=C(Nc1ccc2ncccc2c1)C(=O)c1cn(Cc2ccco2)c2ccccc12` [Compound 42], the IC50 came out at 799 nM in assay [1]; 345 nM in assay [2]; 3980 nM in assay [3]; 296 nM in assay [4]; 453 nM in the assay with gastric HR cancer cells; 634 nM in [5]. Also, the half-inhibitory concentration (IC50) in the assay on breast MCF7 cancer cells stood at 928 nM; in [6], 527 nM. The “Inhibition Score” value in assay [7] is recorded as “+++++”.
Regarding `Cc1cc(Cn2cc(C(=O)C(=O)Nc3ccc4ncccc4c3)c3ccccc32)on1` [Compound 59], the 50% inhibitory concentration (IC50) in assay [1] worked out at 658 nM; in assay [2], 115 nM; in assay [3] it was 613 nM; in assay [4], 34 nM; in the assay on gastric HR cancer cells, 294 nM; in assay [5], 262 nM. The half-inhibitory concentration (IC50) worked out at 678 nM in the assay with breast MCF7 cancer cells and 300 nM in [6]. Besides, the “Inhibition Score” value in assay [7] was “+++++”.
`Cc1cc(NC(=O)C(=O)c2cn(Cc3ccno3)c3ccccc23)sn1` [Compound 54]: the IC50 is 397 nM in [1]; 382 nM in assay [2]; greater than 10000 nM in [3]; 17 nM in [4]; 64 nM in the assay with gastric HR cancer cells; 27 nM in [5]. Further, the 50% inhibitory concentration (IC50) with lung A549 cancer cells was determined as 1670 nM; in assay [8], 725 nM; with breast MCF7 cancer cells it was 5020 nM; in assay [6], 5410 nM; in [9] it was 268 nM; in assay [10], 333 nM. Also, the “Inhibition Score” value in [7] was “+++++”.
For `CCc1cc(Cn2cc(C(=O)C(=O)Nc3cc(C)ns3)c3ccccc32)on1` [Compound 63], the IC50 in assay [1] stood at 705 nM; in [2], 559 nM; in assay [3], 2470 nM; in assay [4] it was 35 nM; in the assay with gastric HR cancer cells, 78 nM; in assay [5], 118 nM. The IC50 in the assay with lung A549 cancer cells came out at 1000 nM; in assay [8] it was 636 nM; in the assay with breast MCF7 cancer cells, 747 nM; in assay [6] it was 5070 nM; in assay [9] it was 312 nM; in [10] it was 330 nM. Also, the “Inhibition Score” value in [7] is given as “+++++”.
Consider `Cc1cc(NC(=O)C(=O)c2cn(Cc3ccsc3)c3ccccc23)sn1` [Compound 45], for which the concentration for half-maximal inhibition (IC50) worked out at 593 nM in assay [1]; 2400 nM in [2]; 1690 nM in [3]; 48 nM in [4]; 316 nM with gastric HR cancer cells; 465 nM in assay [5]. For the same compound, the IC50 in the assay on lung A549 cancer cells was determined as 611 nM; in assay [8] it was 824 nM; in the assay with breast MCF7 cancer cells, 611 nM; in [6], 2350 nM; in assay [9], 306 nM; in assay [10], 406 nM. Moreover, the “Inhibition Score” value in [7] is “+++++”.
Take `COc1ccc(NC(=O)C(=O)c2cn(Cc3ccccc3C#N)c3ccccc23)cc1` [Compound 32]: the concentration for half-maximal inhibition (IC50) is 5650 nM in assay [1]; 1910 nM in assay [2]; 4770 nM in assay [3]; 928 nM in assay [4]; 2250 nM with gastric HR cancer cells; 4850 nM in assay [5]. Further, the results for the half-inhibitory concentration (IC50) (in the assay with breast MCF7 cancer cells; in assay [6]) were 5180 nM and 5290 nM, respectively. In [7], the “Inhibition Score” value is on record as “+++++”.
On to `O=C(Nc1cc(-c2ccc(Cl)cc2)no1)C(=O)c1cn(Cc2ccc(Cl)cc2)c2ccccc12` [Compound 38], for which the IC50 in assay [1] stood at 3720 nM; in assay [2] it was 2240 nM; in [3], 3460 nM; in assay [4] it was 487 nM; in the assay on gastric HR cancer cells it was 2980 nM; in assay [5], 2010 nM. The half-inhibitory concentration (IC50) in the assay on breast MCF7 cancer cells turned out to be 4260 nM; in assay [6], 4080 nM. The “Inhibition Score” value in [7] is given as “−”.
In the case of `N#Cc1ccc(Cn2cc(C(=O)C(=O)Nc3ccc4ncccc4c3)c3ccccc32)cc1` [Compound 3], the IC50 in [1] came out at 665 nM; in assay [2] it was 510 nM; in assay [3] it was 383 nM; in [4], 174 nM; in the assay on gastric HR cancer cells it was 266 nM; in [5], 279 nM. Also, the IC50 in the assay on lung A549 cancer cells worked out at 6400 nM; in assay [8], 9630 nM; with breast MCF7 cancer cells it was 640 nM; in assay [6], 665 nM; in [9] it was 4710 nM; in assay [10], 6090 nM. For the same compound, the “Inhibition Score” value in assay [7] is “+++++”.
